Measurements taken from patent US12091399B2, “Phenyltetrazole derivatives as plasma kallikrein inhibitors” (Boehringer Ingelheim International GmbH, priority 2018, dated 2024).
Square brackets hold non-standard residues; d marks the D form. Peptide text beside a SMILES is read from it. * marks the point of attachment. pNA = O=[N+]([O-])c1ccc(N*)cc1; AMC = Cc1cc(=O)oc2cc(N*)ccc12; Cha = N[CH](CC1CCCCC1)C(=O)O; Abu = CC[CH](N)C(=O)O; Ms = CS(=O)(=O)*

What was measured:
Format in all cases: biochemical
Human PKK [1] = target: T1, Human PKK (Homo sapiens (Human), UniProt P03952); assay: Inhibition of PKK using an endpoint assay (human PKK); details: 1 h at rt, 0.10 μM H-Pro-Phe-Arg-AMC
T1 sequence (P03952 391-638): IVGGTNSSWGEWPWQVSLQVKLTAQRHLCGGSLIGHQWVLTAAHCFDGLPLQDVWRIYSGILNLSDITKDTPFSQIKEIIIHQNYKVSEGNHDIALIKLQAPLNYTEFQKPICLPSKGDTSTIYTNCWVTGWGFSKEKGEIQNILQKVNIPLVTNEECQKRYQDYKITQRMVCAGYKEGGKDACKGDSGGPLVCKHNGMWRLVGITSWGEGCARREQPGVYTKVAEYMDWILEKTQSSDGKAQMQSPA
T1 sequence (P03952 20-390 partner): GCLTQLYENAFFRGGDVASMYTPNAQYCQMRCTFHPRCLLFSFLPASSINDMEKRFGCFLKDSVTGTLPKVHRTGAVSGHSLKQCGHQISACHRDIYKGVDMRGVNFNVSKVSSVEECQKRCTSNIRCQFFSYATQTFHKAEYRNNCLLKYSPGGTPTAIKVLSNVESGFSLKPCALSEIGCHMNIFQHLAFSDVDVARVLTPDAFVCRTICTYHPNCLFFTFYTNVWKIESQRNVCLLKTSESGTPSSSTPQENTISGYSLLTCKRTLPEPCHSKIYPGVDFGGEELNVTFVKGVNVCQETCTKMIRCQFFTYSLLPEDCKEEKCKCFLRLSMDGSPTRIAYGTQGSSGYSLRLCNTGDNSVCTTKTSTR
Procedure: (§1) The ability of compounds of formula (I) to inhibit plasma kallikrein (PKK), Factor XIIa (FXIIa), Factor XIa (FXIa), Factor Xa (FXa), Factor IIa (alpha-thrombin; FIIa), plasmin, trypsin, tissue kallikrein 1 (TK1), Factor Vila (FVIIa), or FVIIa complexed with Tissue Factor, phospholipids and CaCl2) (FVIIa/TF/PL/CaCl2) was determined using the following biochemical assays in assay buffer (100 mM Tris, 150 mM NaCL, adjusted to a pH of 7.8 with HCl, and containing 0.1% (w/v) BSA and 0.05% (v/v) Tween20) in the presence of 1% (v/v) DMSO:
Subsequently, PPACK II (Calbiochem) was added as a stop solution to achieve a final concentration of 1 μM and fluorescence was measured using an Envision Reader (PerkinElmer) with the wavelength excitation setting of 355 nm and the wavelength emission setting of 460 nm. The number of the compound corresponds to the number of the Example in the experimental section.

Human PKK [2] = target: T1, Human PKK; assay: Inhibition of PKK (Ki), kinetic assay; details: 24° C., 0.25 mM H-Pro-Phe-Arg-AMC, IC50 corrected for KM
Procedure: as §1
Human PKK (1.78 nM or 0.025 U/mL; Enzyme Research Laboratories) was incubated at 24° C. with 0.25 mM fluorogenic substrate H-Pro-Phe-Arg-AMC (11295 from Bachem) and various concentrations of the test compound in assay buffer. Measurements were performed in a kinetic interval every 2nd minute for 16 min using a Spectramax M5 (Molecular Devices) with the following settings of the wavelength excitation of 350 nm and wavelength emission of 450 nm. The number of the compound corresponds to the number of the Example in the experimental section.
(§2) The pIC50 values were then fitted using a four-parametric fitting procedure using GraphPad Prism (version 6; GraphPad Software, Inc.). Respective Ki values were obtained by correction of the IC50 values for the respective KM value of the used substrate (see Table A for the obtained KM values of the used substrates) using the following formula: […]
Where the IC50 is in mol/L and the KM value in mmol/L.

[3] = target: PKK in kaolin activated human platelet poor plasma (Homo sapiens (Human), UniProt P03952); assay: Inhibition of PKK in kaolin activated human PPP; details: global fit over 25, 75, 250, 750 μg/mL kaolin, 37° C.
Chain of PKK in kaolin activated human platelet poor plasma (P03952 391-638): as the sequence (P03952 391-638) above
Chain of PKK in kaolin activated human platelet poor plasma (P03952 20-390 partner): as the sequence (P03952 20-390 partner) above
Procedure: Platelet poor plasma (PPP) obtained from human wholeblood, anticoagulated with Na-Citrate, was incubated with various concentrations of the test compound together with either 25, 75, 250, or 750 μg/mL kaolin in assay buffer for 20 min at 37° C. such that for each kaolin dose used a concentration response was obtained for the test compound.
The number of the compound corresponds to the number of the Example in the experimental section.

human TK1 = human TK1 (Homo sapiens (Human), UniProt P06870); assay: Inhibition of TK1 (Ki); details: substrate KM, enzyme TK1
Chain of human TK1 (P06870 25-262): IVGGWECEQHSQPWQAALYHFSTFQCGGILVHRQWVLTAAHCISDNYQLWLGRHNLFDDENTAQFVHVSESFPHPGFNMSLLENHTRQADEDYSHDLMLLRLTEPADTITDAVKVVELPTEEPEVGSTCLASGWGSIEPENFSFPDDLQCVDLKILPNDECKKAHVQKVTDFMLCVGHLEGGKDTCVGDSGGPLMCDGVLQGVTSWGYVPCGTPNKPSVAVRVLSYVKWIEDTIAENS
Procedure: as §1
Prior to the assay, human TK1 (R&D Systems) was activated by incubation with human trypsin (Calbiochem) in a 1:10,000 ratio for 15 min at 37° C. For assaying TK1 inhibitory activity, activated TK1 (31.25 nM or 1 U/mL) was incubated at 24° C. with 0.1 mM fluorogenic substrate H-Pro-Phe-Arg-AMC (11295 from Bachem) and various concentrations of the test compound in assay buffer. Measurements were performed in a kinetic interval every 2nd minute for 16 min using a Spectramax M5 (Molecular Devices) with the following settings of the wavelength excitation of 350 nm and wavelength emission of 450 nm.
(§3) The pIC50 values were then fitted using a four-parametric fitting procedure using GraphPad Prism (version 6; GraphPad Software, Inc.). […]

Human plasmin = Human plasmin (Homo sapiens (Human), UniProt P00747); assay: Inhibition of plasmin (Ki); details: substrate KM, enzyme Plasmin
Chain of Human plasmin (P00747 581-810): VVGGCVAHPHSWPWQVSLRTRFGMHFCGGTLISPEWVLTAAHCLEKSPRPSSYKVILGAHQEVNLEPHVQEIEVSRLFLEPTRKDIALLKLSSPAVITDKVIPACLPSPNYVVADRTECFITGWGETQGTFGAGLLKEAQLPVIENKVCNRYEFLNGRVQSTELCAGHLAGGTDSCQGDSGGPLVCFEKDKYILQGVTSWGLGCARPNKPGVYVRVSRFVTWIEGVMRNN
Chain of Human plasmin (P00747 97-580 partner): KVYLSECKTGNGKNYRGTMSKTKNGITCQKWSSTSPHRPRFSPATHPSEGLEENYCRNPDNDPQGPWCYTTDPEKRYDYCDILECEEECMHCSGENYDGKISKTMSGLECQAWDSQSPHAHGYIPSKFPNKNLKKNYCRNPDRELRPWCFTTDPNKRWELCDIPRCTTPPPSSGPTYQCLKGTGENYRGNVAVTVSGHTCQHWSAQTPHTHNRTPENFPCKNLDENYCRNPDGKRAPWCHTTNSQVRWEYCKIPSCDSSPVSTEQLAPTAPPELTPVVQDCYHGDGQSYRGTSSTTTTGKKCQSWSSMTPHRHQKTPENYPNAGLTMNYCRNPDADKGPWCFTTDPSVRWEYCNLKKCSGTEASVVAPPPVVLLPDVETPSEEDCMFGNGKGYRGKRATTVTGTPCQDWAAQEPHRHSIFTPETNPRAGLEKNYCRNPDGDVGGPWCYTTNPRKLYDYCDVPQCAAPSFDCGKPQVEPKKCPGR
Procedure: as §1
Measurements were performed in a kinetic interval every 2nd minute for 16 min using a Spectramax M5 (Molecular Devices) measuring the optical absorbance at 405 nm.
as §2

Human FVIIa = Human FVIIa (Homo sapiens (Human), UniProt P08709); assay: Inhibition of FVIIa (Ki); details: substrate KM, enzyme FVIIa
Chain of Human FVIIa (P08709 213-466): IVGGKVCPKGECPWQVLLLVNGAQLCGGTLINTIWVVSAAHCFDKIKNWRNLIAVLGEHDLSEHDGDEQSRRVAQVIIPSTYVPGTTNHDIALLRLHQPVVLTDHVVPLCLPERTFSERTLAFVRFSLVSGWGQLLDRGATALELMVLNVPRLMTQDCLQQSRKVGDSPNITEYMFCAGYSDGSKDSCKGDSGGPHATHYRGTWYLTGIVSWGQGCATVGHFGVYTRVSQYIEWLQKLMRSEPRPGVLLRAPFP
Chain of Human FVIIa (P08709 61-212 partner): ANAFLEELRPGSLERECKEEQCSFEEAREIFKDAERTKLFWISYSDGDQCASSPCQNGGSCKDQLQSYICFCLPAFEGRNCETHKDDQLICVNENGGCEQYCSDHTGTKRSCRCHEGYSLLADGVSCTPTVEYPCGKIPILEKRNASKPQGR
Procedure: as §1
(§4) Human FVIIa (0.86 nM or 0.01 U/mL; Enzyme Research Laboratories) was incubated at 24° C. with 1.5 mM chromogenic Pefachrome® FVIIa (Loxo) and various concentrations of the test compound in assay buffer. Measurements were performed in a kinetic interval every 2nd minute for 16 min using a Spectramax M5 (Molecular Devices) measuring the optical absorbance at 405 nm.
as §2

FVIIa/TF/PL/CaCl2 = FVIIa/TF/PL/CaCl2 (Homo sapiens (Human), UniProt P08709); assay: Inhibition of FVIIa/TF/PL/CaCl2 (Ki); details: substrate KM, enzyme FVIIa/TF/PL/CaCl2
Chain of FVIIa/TF/PL/CaCl2 (P08709 213-466): as the sequence (P08709 213-466) above
Chain of FVIIa/TF/PL/CaCl2 (P08709 61-212 partner): as the sequence (P08709 61-212 partner) above
Chain of FVIIa/TF/PL/CaCl2 (P13726 33-295 partner): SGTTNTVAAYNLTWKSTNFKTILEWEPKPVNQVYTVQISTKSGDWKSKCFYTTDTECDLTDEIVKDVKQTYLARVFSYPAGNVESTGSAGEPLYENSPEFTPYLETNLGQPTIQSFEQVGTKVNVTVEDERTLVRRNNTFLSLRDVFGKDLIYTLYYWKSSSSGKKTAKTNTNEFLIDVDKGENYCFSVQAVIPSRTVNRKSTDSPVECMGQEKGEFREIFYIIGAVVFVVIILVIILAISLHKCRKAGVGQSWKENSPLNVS
Procedure: as §1
as §4, with “(300” for “(0.86”, “585” for “0.01”, “Laboratories) together with 10 mM CaCl2)*2H2O and 13.3% (v/v) Dade®Innovin® (Siemens; OQUMI94E0002(5534), which contains recombinant human tissue factor synthetic phospholipids (thromboplastin),” for “Laboratories)”
as §3

Human FXIIa = Human FXIIa (Homo sapiens (Human), UniProt P00748); assay: Inhibition of FXIIa (Ki); details: substrate KM, enzyme FXIIa
Chain of Human FXIIa (P00748 373-615): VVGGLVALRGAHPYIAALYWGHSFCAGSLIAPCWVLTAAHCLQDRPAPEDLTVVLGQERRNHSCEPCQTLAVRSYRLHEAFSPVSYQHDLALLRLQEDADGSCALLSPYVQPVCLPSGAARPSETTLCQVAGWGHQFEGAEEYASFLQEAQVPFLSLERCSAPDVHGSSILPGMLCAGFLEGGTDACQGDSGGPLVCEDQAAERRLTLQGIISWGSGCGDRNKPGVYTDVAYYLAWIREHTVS
Chain of Human FXIIa (P00748 20-372 partner): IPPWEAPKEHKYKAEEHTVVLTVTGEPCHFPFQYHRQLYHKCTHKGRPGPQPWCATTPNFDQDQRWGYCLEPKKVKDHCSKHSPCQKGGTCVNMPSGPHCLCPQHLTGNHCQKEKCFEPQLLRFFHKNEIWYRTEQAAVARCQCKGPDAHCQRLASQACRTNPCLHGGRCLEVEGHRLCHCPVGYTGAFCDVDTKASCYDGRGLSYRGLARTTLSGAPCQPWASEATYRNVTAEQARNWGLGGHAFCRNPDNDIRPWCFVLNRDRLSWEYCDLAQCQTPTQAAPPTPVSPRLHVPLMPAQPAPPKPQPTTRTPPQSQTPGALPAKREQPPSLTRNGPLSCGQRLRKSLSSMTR
Procedure: as §1
as §4, with “FXIIa (47.5” for “FVIIa (0.86”, “1.1” for “0.01”, “0.5” for “1.5”, “Substrate S2302 (Chromogenix)” for “Pefachrome® FVIIa (Loxo)”
as §2

Row | SMILES | IC50 (Human PKK [1]) [nM] | Ki (Human PKK [2]) [nM] | IC90 [3] [nM] | also measured
1 | COCc1nn(Cc2ccc(N3CC4CC4C3)nc2C)cc1C(=O)NCc1cc(Cl)ccc1-n1cnnn1 (centres unmarked) [Example 13] | 0.9 | 0.8 | 396 | 
2 | COc1nn(Cc2ccc(N3CC4CC4C3)nc2C)cc1C(=O)NCc1cc(Cl)ccc1-n1cnnn1 (centres unmarked) [Example 21] | 3 | 1 | 713 | 
3 | O=C(NCc1cc(Cl)ccc1-n1cnnn1)c1cn(Cc2ccc(N3CC4CC4C3)nc2)c2ncccc12 (centres unmarked) [Example 45] | 3 | 0.3 | 106 | 
4 | Cc1cc(=O)oc2cc(NC(=O)[C@H](CCCNC(=N)N)NC(=O)[C@H](Cc3ccccc3)NC(=O)[C@@H]3CCCN3)ccc12 [Example I1295, H-Pro-Phe-Arg-AMC] (H-Pro-Phe-Arg-{AMC}) |  |  |  | Km (human TK1): 70 µM
5 | Cc1nc(N2CC3CC3C2)ccc1Cn1cc(C(=O)NCc2cc(Cl)ccc2-n2cnnn2)c2cncnc21 (centres unmarked) [Example 15] | 2 | 0.7 | 419 | 
6 | Cc1nc(N2CC3CC3C2)ccc1Cn1cc(C(=O)NCc2cc(Cl)ccc2-n2cnnn2)c(-c2cnn(C)c2)n1 (centres unmarked) [Example 42] | 0.6 | 1 | 257 | 
7 | Cc1ccc(-n2cnnn2)c(CNC(=O)c2cnn(Cc3ccc(N4CC5CC5C4)nc3C)c2)c1 (centres unmarked) [Example 5] | 0.9 | 0.4 | 316 | 
8 | Cc1nc(N2CC3CC3C2)ccc1Cn1cc(C(=O)NCc2cc(Cl)ccc2-n2cnnn2)c(C(F)F)n1 (centres unmarked) [Example 9] | 1 | 0.8 | 239 | 
9 | CC(C)C[C@H](NC(=O)[C@H](N)C(C)C)C(=O)N[C@@H](CCCCN)C(=O)Nc1ccc([N+](=O)[O-])cc1 [Example S2251] (H-[dV]-Leu-Lys-pNA) |  |  |  | Km (Human plasmin): 1450 µM
10 | Cc1nc(N2CC3CC3C2)ccc1Cn1cc(C(=O)NCc2c(-n3cnnn3)ccc(Cl)c2F)cn1 (centres unmarked) [Example 3] | 0.4 | 0.2 | 170 | 
11 | Cn1cc(-c2nn(Cc3ccc(N4CC5CC5C4)nc3)cc2C(=O)NCc2cc(Cl)ccc2-n2cnnn2)cn1 (centres unmarked) [Example 46] | 0.7 | 1 | 341 | 
12 | Nc1nn(Cc2ccc(N3CC4CC4C3)nc2)cc1C(=O)NCc1cc(Cl)ccc1-n1cnnn1 (centres unmarked) [Example 52] | 0.6 | 0.4 | 103 | 
13 | O=C(NCc1cc(Cl)ccc1-n1cnnn1)c1cn(Cc2ccc(N3CC4CC4C3)nc2)nc1C(F)F (centres unmarked) [Example 44] | 1 | 0.5 | 341 | 
14 | COc1nn(Cc2ccc(N3CC4CC4C3)nc2)cc1C(=O)NCc1cc(Cl)ccc1-n1cnnn1 (centres unmarked) [Example 47] | 3 | 0.7 | 711 | 
15 | CCC(NC(=O)C(CC1CCCCC1)NS(C)(=O)=O)C(=O)NC(CCCN=C(N)N)C(=O)Nc1ccc([N+](=O)[O-])cc1 (centres unmarked) [Pefachrome ® FVIIa] (Ms-[Cha]-[Abu]-Arg-pNA; configuration not given here) |  |  |  | Km (Human FVIIa): 420 µM; Km (FVIIa/TF/PL/CaCl2): 3920 µM
16 | Cc1nc(N2CC3CC3C2)ccc1Cn1cc(C(=O)NCc2cc(Cl)ccc2-n2cnnn2)c(N)n1 (centres unmarked) [Example 48] | 0.8 | 0.5 | 316 | 
17 | Cc1nc(N2CC3CC3C2)ccc1Cn1cc(C(=O)NCc2cc(Cl)ccc2-n2cnnn2)c(Br)n1 (centres unmarked) [Example 49] | 1 | 0.4 | 932 | 
18 | Cc1nc(N2CC3CC3C2)ccc1Cn1cc(C(=O)NCc2cc(Cl)c(F)cc2-n2cnnn2)cn1 (centres unmarked) [Example 2] | 5 | 0.8 | 1150 | 
19 | N=C(N)NCCC[C@H](NC(=O)[C@H](Cc1ccccc1)NC(=O)[C@H]1CCCN1)C(=O)Nc1ccc([N+](=O)[O-])cc1 [Example S2302] (H-[dP]-Phe-Arg-pNA) |  |  |  | Km (Human FXIIa): 200 µM

Now from value to compound, other results behind:

Row | IC50 (Human PKK [1]) [nM] | Ki (Human PKK [2]) [nM] | IC90 [3] [nM] | SMILES | also measured
20 | 0.5 | 0.3 | 202 | Cc1nc(N2CC3CC3C2)ccc1Cn1cc(C(=O)NCc2cc(Cl)ccc2-n2cnnn2)cn1 (centres unmarked) [Example 1, 1-[(6-{3-azabicyclo[3.1.0]hexan-3-yl}-2-methylpyridin-3-yl)methyl]-N-{[5-chloro-2-(1H-1,2,3,4-tetrazol-1-yl)phenyl]-methyl}-1H-pyrazole-4-carboxamide] | 
21 | 0.4 |  | 184 | Cc1nc(N2CC3C(C2)C3(F)F)ccc1Cn1cc(C(=O)NCc2cc(Cl)ccc2-n2cnnn2)cn1 (centres unmarked) [Example 6] | 
22 | 4 | 2 | 4070 | Cc1nc(N2CCC3(CCC3)C2)ccc1Cn1cc(C(=O)NCc2cc(Cl)ccc2-n2cnnn2)cn1 [Example 60, 1-[(6-{6-azaspiro[3.4]octan-6-yl}-2-methylpyridin-3-yl)methyl]-N-{[5-chloro-2-(1H-1,2,3,4-tetrazol-1-yl)phenyl]methyl}-1H-pyrazole-4-carboxamide] | 
23 | 0.5 | 0.3 | 209 | Cc1nc(N2CC3(CC3)C2)ccc1Cn1cc(C(=O)NCc2cc(Cl)ccc2-n2cnnn2)cn1 [Example 63, 1-[(6-{5-azaspiro[2.3]hexan-5-yl}-2-methylpyridin-3-yl)methyl]-N-{[5-chloro-2-(1H-1,2,3,4-tetrazol-1-yl)phenyl]methyl}-1H-pyrazole-4-carboxamide] | 
24 | 0.7 | 0.3 | 847 | Cc1nc(N2CC3(CCC3)C2)ccc1Cn1cc(C(=O)NCc2cc(Cl)ccc2-n2cnnn2)cn1 [Example 59, 1-[(6-{2-azaspiro[3.3]heptan-2-yl}-2-methylpyridin-3-yl)methyl]-N-{[5-chloro-2-(1H-1,2,3,4-tetrazol-1-yl)phenyl]methyl}-1H-pyrazole-4-carboxamide] | 
25 | 0.9 | 0.8 | 252 | Cc1nc(N2C[C@@H]3[C@H](C)[C@@H]3C2)ccc1Cn1cc(C(=O)NCc2cc(Cl)ccc2-n2cnnn2)cn1 [Example 87] | 
26 | 3 | 1 | 969 | Cc1nc(N2CC3(C2)CC3(F)F)ccc1Cn1cc(C(=O)NCc2cc(Cl)ccc2-n2cnnn2)cn1 [Example 54] | 
27 | 22 |  |  | Cc1nc(N2CC3(CCOC3)C2)ccc1Cn1cc(C(=O)NCc2cc(Cl)ccc2-n2cnnn2)cn1 [Example 81, N-{[5-chloro-2-(1H-1,2,3,4-tetrazol-1-yl)phenyl]methyl}-1-[(2-methyl-6-{6-oxa-2-azaspiro[3.4]octan-2-yl}pyridin-3-yl)methyl]-1H-pyrazole-4-carboxamide] | 
